Results on four molecules are retold here after patent US20120077737A1, “HEPATITIS C INHIBITOR COMPOUNDS” (priority 2009, published 2012).

The subject of test [1] is HCV genotype 1b subgenomic replicon with NS3 resistance mutation D168V. Nature of the test: HCV replicon RNA replication assay, D168V 1b. In kind it is cell-based, HCV genotype 1b (Con-1), Huh-7 cells. The note with it: Hepatitis C virus, Huh-7, 72 h, read-out: D168V 1b Ec50 (nM). On the technique in general: In antiviral work, replicon cells carry a viral genome segment that copies itself.

Test [2] relates to HCV genotype 1a subgenomic replicon with NS3 resistance mutation R155K. Nature of the test: HCV replicon RNA replication assay, R155K 1a. The note with it: Hepatitis C virus, Huh-7, 72 h, read-out: R155K 1a Ec50 (nM). In kind it is cell-based, HCV genotype 1a (strain H77), Huh-7 cells.
For test [3], the system named is HCVPV1b subgenomic replicon (wild type 1b). As to the kind of experiment: HCV replicon RNA replication assay, wild type 1b. In kind it is cell-based, HCV genotype 1b (Con-1), Huh-7 cells. As to conditions: Hepatitis C virus; Table 1; luciferase replicon, Huh-7, 72 h; read-out: WT 1b Ec50.
For test [4], the system named is HCV genotype 1a subgenomic replicon with NS3 resistance mutation D168V. Nature of the test: HCV replicon RNA replication assay, D168V 1a. In kind it is cell-based, HCV genotype 1a (strain H77), Huh-7 cells. As to conditions: Hepatitis C virus, Huh-7, 72 h, read-out: D168V 1a Ec50 (nM).
Test [5] relates to HCVPV1a subgenomic replicon (wild type 1a). As to the kind of experiment: HCV replicon RNA replication assay, wild type 1a. In kind it is cell-based, HCV genotype 1a (strain H77), Huh-7 cells. The note with it: Hepatitis C virus; Table 1; luciferase replicon, Huh-7, 72 h; read-out: WT 1a Ec50.

SMILES strings stand for the structures.

In the case of `CNC(=O)Cn1ccc(C(=O)N[C@H]2CCCCC/C=C\[C@@H]3C[C@@]3(C(=O)NS(=O)(=O)C3CC3)NC(=O)[C@@H]3C[C@@H](Oc4cc(OC(C)C)nc5c(C)c(OC)ccc45)CN3C2=O)n1` [Compound 1018, (2R,6S,12Z,13aS,14aR,16aS)-N-(cyclopropylsulfonyl)-2-{[7-methoxy-8-methyl-2-(propan-2-yloxy)quinolin-4-yl]oxy}-6-[({1-[2-(methylamino)-2-oxoethyl]-1H-pyrazol-3-yl}carbonyl)amino]-5,16-dioxo-1,2,3,6,7,8,9,10,11,13a,14,15,16,16a-tetradecahydrocyclopropa[e]pyrrolo[1,2-a][1,4]diazacyclopentadecine-14a(5H)-carboxamide], the concentration for a half-maximal effect (EC50) amounted to 2.4 nM in test [1]; 4.2 nM in test [2]; 3.3 nM in test [3]; 9.8 nM in test [4]; 2.7 nM in test [5].

`CNC(=O)Cn1ccc(C(=O)N[C@H]2CCCCC/C=C\[C@@H]3C[C@@]3(C(=O)NS(=O)(=O)C3(C)CC3)NC(=O)[C@@H]3C[C@@H](Oc4cc(OC(C)C)nc5c(C)c(OC)ccc45)CN3C2=O)n1` [Compound 1019, (2R,6S,12Z,13aS,14aR,16aS)-2-{[7-methoxy-8-methyl-2-(propan-2-yloxy)quinolin-4-yl]oxy}-6-[({1-[2-(methylamino)-2-oxoethyl]-1H-pyrazol-3-yl}carbonyl)amino]-N-[(1-methylcyclopropyl)sulfonyl]-5,16-dioxo-1,2,3,6,7,8,9,10,11,13a,14,15,16,16a-tetradecahydrocyclopropa[e]pyrrolo[1,2-a][1,4]diazacyclopentadecine-14a(5H)-carboxamide]: the EC50 came out at 1.8 nM in test [1]; 1.6 nM in test [2]; 1.5 nM in test [3]; 5.4 nM in test [4]; 2 nM in test [5].

For the molecule `COc1ccc2c(O[C@@H]3C[C@H]4C(=O)N[C@]5(C(=O)NS(=O)(=O)C6(C)CC6)C[C@H]5/C=C\CCCCC[C@H](NC(=O)c5ccc(C(C)(C)O)s5)C(=O)N4C3)cc(OC(C)C)nc2c1C` [Compound 1020, (2R,6S,12Z,13aS,14aR,16aS)-6-({[5-(2-hydroxypropan-2-yl)thiophen-2-yl]carbonyl}amino)-2-{[7-methoxy-8-methyl-2-(propan-2-yloxy)quinolin-4-yl]oxy}-N-[(1-methylcyclopropyl)sulfonyl]-5,16-dioxo-1,2,3,6,7,8,9,10,11,13a,14,15,16,16a-tetradecahydrocyclopropa[e]pyrrolo[1,2-a][1,4]diazacyclopentadecine-14a(5H)-carboxamide], the half-maximal effective concentration (EC50) turned out to be 0.39 nM in test [1]; 2.4 nM in test [2]; 0.66 nM in test [3]; 3.7 nM in test [4]; 0.86 nM in test [5].

As to `COc1c(F)ccc2c(O[C@@H]3C[C@H]4C(=O)N[C@]5(C(=O)NS(=O)(=O)C6(C)CC6)C[C@H]5/C=C\CCCCC[C@H](NC(=O)c5ccn(CCF)n5)C(=O)N4C3)cc(OC(C)C)nc12` [Compound 1021, (2R,6S,12Z,13aS,14aR,16aS)-6-({[1-(2-fluoroethyl)-1H-pyrazol-3-yl]carbonyl}amino)-2-{[7-fluoro-8-methoxy-2-(propan-2-yloxy)quinolin-4-yl]oxy}-N-[(1-methylcyclopropyl)sulfonyl]-5,16-dioxo-1,2,3,6,7,8,9,10,11,13a,14,15,16,16a-tetradecahydrocyclopropa[e]pyrrolo[1,2-a][1,4]diazacyclopentadecine-14a(5H)-carboxamide], the 50% effective concentration (EC50) in test [1] stood at 0.53 nM; in test [2], 1.9 nM; in test [3] it was 0.48 nM; in test [4], 0.93 nM; in test [5], 0.34 nM.

A word on the EC50: it is the midpoint of the concentration-response curve.
